Where “and” joins values, the source holds several entries; their conditions need not be identical. Identical values can stand only once. Like-named read-outs stand apart in the source and are kept apart here.
Experiments:
MOLM14 cells [1] = assay: total ROS generation (CM-H2DCFDA flow cytometry); assay type: cell-based, human; details: 16h
Method: (§1) A. Quantification of the percentage of early apoptotic cells (Annexin-V+/7-AAD-) from three independent experiments in which cells were stained for apoptosis with 7-AAD and Annexin-V then analyzed by flow cytometry. […] C. […] 16h after addition of drugs, cells were washed and analyzed by flow cytometry for CM-H2DCFDA fluorescence (indicating total ROS generation) in the FL1 channel. Mean Fluorescence Intensity (MFI) was normalized to that of vehicle control (0.5% DMSO) with no pretreatment. […] Viable cell counts, obtained via Trypan Blue dye exclusion, were normalized to vehicle (0.02% DMSO)-treated samples +/– pretreatment.
Cells were preloaded with 5 μM 5-(and-6)-chloromethyl-2′,7′-dichlorodihydrofluorescein diacetate (CM-H2DCFDA, Life Technologies) in PBS (30min, 37°C), then washed before drug treatment. Following 16h incubation with drugs, cells were analyzed by flow cytometry.

[2] = tested on: Caspase-3/7 activity in MOLM14 cells; assay: Caspase-Glo 3/7 Assay; assay type: cell-based, human; details: AS 5 μM, 24h
Method: as §1
Cells were co-stained with […] each 7-AAD and APC-conjugated Annexin-V (BioLegend), in Annexin-V binding buffer and analyzed by flow cytometry. Caspase-3/7 activity was measured using a Caspase-Glo 3/7 Assay (Promega, Madison, WI).

[3] = tested on: 23 human leukemia cell lines; assay: alamarBlue cytotoxicity assay, panel summary; assay type: cell-based
Method: (§2) Following subtraction of background fluorescence from all wells, fluorescence of drug-treated cells was normalized to that of vehicle (<0.5% DMSO)-treated cells to determine the effect of each drug concentration on viability. Each cell line was tested in triplicate and in at least three independent experiments. IC50 (concentration that inhibits cell growth by 50%) values were calculated using CompuSyn software (ComboSyn, Paramus, NJ). […] In addition several cell lines were initially cultured and tested in alternative media (Supplementary Table S2). […] Colony counts were normalized to vehicle-treated controls (100%). Three independent experiments were performed.
(§3) In most experiments, cytotoxicity was assessed using alamarBlue assays (Life Technologies, Grand Island, NY). In experiments using NAC and DFO, which can interfere with alamarBlue assay performance, Trypan Blue dye exclusion was used instead.

NSG mice = assay: tolerability / maximum-tolerated dose
Method: (§4) Blood samples were collected via
(§5) retro-orbital bleeding into EDTA-coated tubes from MOLM14 NSG mice 1 day A-D. and 7 days E-H. after completion of a 5-day drug
(§6) CBCs were determined using a Hemavet 950 analyzer.
(§7) Normal blood samples were obtained from normal, untreated NSG mice (n = 37) over several years.

in vivo [4] = details: NSG, mouse, in vivo, po
Method: as §4, §5, §6, §7

in vivo [5] = details: male, NSG, mouse, plasma, po, 200 mg/kg
Method: Plasma samples were obtained from 3-6 male NSG mice per time point (15min-24h after drug administration). Symbols represent concentrations of compound by LC/MS-MS detection.
Blood samples were collected via retro-orbital bleeding into EDTA-coated tubes. PK samples were centrifuged to obtain plasma, which was stored frozen (−80°C) until liquid chromatography/triple quadrupole mass spectrometry (LC/MS-MS) analysis.
were separated using an Agilent Zorbax Eclipse C18 column (2.1 mm x 50 mm, 3.5 μm) using gradient mobile phase
(acetonitrile and 2 mM ammonium acetate both containing 0.1% formic acid) and a gradient flow rate (0.2 to 0.4 ml/
min). An AB Sciex 5500 triple quadrupole mass spectrometer was used for detection. The m/z transitions used were
The calibration range was 5–1,000 ng/mL for all analytes. Mean drug concentrations were calculated at each time point. PK parameters (plasma
half-life [T1/2]; time to reach Cmax [Tmax]; maximum plasma concentration [Cmax]; area under the plasma concentration-
time curve [AUC] from time zero to the last measurable concentration [AUClast]; AUC from time zero to infinity [i.e.,
the AUClast + the extrapolated AUC from AUClast to infinity; AUC0–∞]; apparent volume of distribution [Vz/F]; body
weight-adjusted apparent clearance [CL/F/kg]) were calculated from mean drug concentration-time data using non-
the r2 of the elimination rate constant (λ ) was < 0.9, the AUC , CL/F, and T were not reported (NR).

MOLM14 cells [6] = assay: viable cell counts via Trypan Blue dye exclusion, 48h; assay type: cell-based, human
Method: as §1, §3

NALM-6 cells = assay: alamarBlue cytotoxicity assay, 48h; assay type: cell-based, human; details: NALM-6 (B-ALL), RPMI + 10% FBS
Method: as §2
In most experiments, cytotoxicity was assessed using alamarBlue assays (Life Technologies, Grand Island, NY). In experiments using NAC and DFO, which can interfere with alamarBlue assay performance, Trypan Blue dye exclusion was used instead. […]
experiments performed in triplicate. […] Age refers to age […]
at the time of leukemia diagnosis of the patient from whom the cell line was derived. (–) Indicates information unavailable.
*Cell lines with FLT3/ITD mutations.
*The MV-4–11 cell line was derived from a patient with a biphenotypic B-myelomonocytic leukemia; K562 was derived […]
1A. p53 status was obtained from http://cancer.sanger.ac.uk/cell_lines/cbrowse/all and http://p53.free.fr/Database/Cancer_ cell_lines/Leukemia_cancer. html. WT: wild type. Mut: mutant. SM: single mutation. DM: double mutation. MM: multiple mutations. Fs: Frameshift mutation. Null: protein expression undetectable.

[7] = tested on: Jurkat T-cell acute lymphoblastic leukemia (T-ALL) cells; parameters: method as in PMID 23673218; details: cited from earlier work

C[C@H]1[C@H](OC(=O)CCC(=O)O)O[C@@H]2O[C@@]3(C)CC[C@H]4[C@H](C)CC[C@@H]1[C@@]24OO3 [AS, artesunate]
total cellular ROS levels (MOLM14 cells [1]; AS 5 μM): significantly increased total cellular ROS levels | caspase-3/7 activity [2]: caspase-3/7 activation | IC50 ([3]; Homo sapiens, 48 h, all 23 leukemia cell lines tested, 48h, read-out: IC50 range): 460 to 10300 nM | IC50 ([3]; Homo sapiens, Leukemia Type: ALL, unit only on plot axis of Figure 1A, read-out: IC50 Range): 460 to 10000 nM | IC50 ([3]; Homo sapiens, Leukemia Type: ALL, unit only on plot axis of Figure 1A, read-out: Mean IC50): 5000 nM | IC50 ([3]; Homo sapiens, Leukemia Type: ALL, unit only on plot axis of Figure 1A, read-out: Median IC50): 4800 nM | IC50 ([3]; Homo sapiens, Leukemia Type: AML, unit only on plot axis of Figure 1A, read-out: IC50 Range): 800 to 6300 nM | IC50 ([3]; Homo sapiens, Leukemia Type: AML, unit only on plot axis of Figure 1A, read-out: Mean IC50): 2300 nM | IC50 ([3]; Homo sapiens, Leukemia Type: AML, unit only on plot axis of Figure 1A, read-out: Median IC50): 1700 nM | clinical neurotoxicity (NSG mice; mouse, in vivo): no clinical neurotoxicity was observed | dose-limiting toxicity (NSG mice; mouse, in vivo, po): acute weight loss | MTD (in vivo [4]): 500 to 600 mg/kg | MTD at 5 days/week (in vivo [4]): 150 to 200 mg/kg | AUC(0-t) (in vivo [5]): 34.8 ng·h/mL | Cmax (in vivo [5]): 67 ng/mL and 240 nM | Tmax (in vivo [5]): 15 min | IC50 (MOLM14 cells [6]; Homo sapiens, MOLM-14, MOLM14, 48h, Pre-Treatment: CTRL, unit inferred, read-out: IC50): 885 ± 57 nM | IC50 (NALM-6 cells; Homo sapiens): 5190 ± 430 nM

C[C@@H]1CCC2[C@@H](C)[C@@H](CC(COP(=O)(Oc3ccccc3)Oc3ccccc3)C[C@H]3O[C@@H]4O[C@@]5(C)CCC6[C@H](C)CCC([C@H]3C)[C@]64OO5)O[C@@H]3O[C@@]4(C)CCC1[C@@]23OO4 (some centres unmarked) [ART-838, artemisinin-derived trioxane diphenylphosphate dimer 838]
total cellular ROS levels (MOLM14 cells [1]; ART-838 0.1 μM): significantly increased total cellular ROS levels | fold more potent than AS (average) ([3]; across 23 leukemia cell lines): 88 fold | fold more potent than AS (range) ([3]; across 23 leukemia cell lines): 11-315 fold | IC50 ([3]; all 23 leukemia cell lines tested, 48h, read-out: IC50 range): 10 to 550 nM | IC50 ([3]; including those harboring MLLr and FLT3/ITD, read-out: IC50 against every acute leukemia tested): < 1000 nM | fold lower IC50 than that of AS [7]: ~70 fold | chronic MTD (NSG mice; 5 days/week by oral gavage, NSG mice): 40 to 50 mg/kg | dose-limiting toxicity (NSG mice; NSG mice, oral gavage): acute weight loss | clinical neurotoxicity (NSG mice; NSG mice, prior toxicity experiments at approximate chronic MTD): no clinical neurotoxicity was observed | complete and differential blood cell counts (NSG mice; normal NSG mice, 5-day cycle ART-838 50 mg/kg/d, days 6 and 12): normal complete and differential blood cell counts | single dose MTD (NSG mice; oral gavage, NSG mice): 500 to 600 mg/kg | fold resistance to growth inhibition after DFO pretreatment (MOLM14 cells [6]; MOLM14, DFO 11 μM pretreatment): 3 fold | fold resistance to growth inhibition after NAC pretreatment (MOLM14 cells [6]; MOLM14, NAC 25 μM pretreatment): not increased | IC50 (NALM-6 cells): 16 ± 5 nM

Reference: publication PMC4872784 (Oncotarget, 2016)
